Measured values taken from ChEMBL document CHEMBL4480418, “Antibacterial activity of indolyl-quinolinium derivatives and study their mode of action” (Bioorg Med Chem, 2019).
The source made the active and inactive calls. The calls are words filed in the database; no cut-off is given here.

Legend:
[1] = biological target: T1, Cell division protein FtsZ (Staphylococcus aureus) (UniProt P0A031); test: Inhibition of Staphylococcus aureus FtsZ GTPase activity at 32 ug/ml preincubated for 10 mins followed by GTP addition and measured after 30 mins relative to control
T1 sequence (whole entry): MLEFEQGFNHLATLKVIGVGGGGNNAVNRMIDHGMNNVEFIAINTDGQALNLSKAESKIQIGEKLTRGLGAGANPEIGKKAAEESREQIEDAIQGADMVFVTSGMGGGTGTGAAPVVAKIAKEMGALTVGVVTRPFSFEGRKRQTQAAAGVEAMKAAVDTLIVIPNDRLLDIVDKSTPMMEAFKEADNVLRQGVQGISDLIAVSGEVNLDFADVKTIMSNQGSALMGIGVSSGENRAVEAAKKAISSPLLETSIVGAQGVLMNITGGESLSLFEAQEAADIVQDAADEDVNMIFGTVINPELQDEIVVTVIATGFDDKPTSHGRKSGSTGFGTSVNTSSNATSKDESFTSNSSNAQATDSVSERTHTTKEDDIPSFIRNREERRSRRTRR

[2] = test system: Enterococcus faecalis; test: Antimicrobial activity against Enterococcus faecalis ATCC 29212 measured after 18 hrs by broth microdilution method; type: functional; details: ATCC 29212, 18 h
[3] = biological target: T1, Cell division protein FtsZ (Staphylococcus aureus); test: Inhibition of Staphylococcus aureus FtsZ GTPase activity preincubated for 10 mins followed by GTP addition and measured after 30 mins
[4] = test system: Pseudomonas aeruginosa; test: Antimicrobial activity against multidrug-resistant Pseudomonas aeruginosa ATCC BAA-2108 measured after 18 hrs by broth microdilution method; type: functional; details: ATCC BAA-2108, 18 h
[5] = test system: Staphylococcus aureus; test: Antimicrobial activity against penicillin-resistant Staphylococcus aureus ATCC 29213 assessed as ratio of MIC after and before 15 serial passages preincubated followed by replating and measured after 24 hrs; type: functional
[6] = biological target: T1, Cell division protein FtsZ (Staphylococcus aureus); test: Inhibition of Staphylococcus aureus FtsZ GTPase activity at 16 ug/ml preincubated for 10 mins followed by GTP addition and measured after 30 mins relative to control
[7] = test system: Enterobacter cloacae; test: Antimicrobial activity against Ampc beta-lactamase expressing Enterobacter cloacae ATCC BAA-1143 measured after 18 hrs by broth microdilution method; type: functional; details: ATCC BAA-1143, 18 h
[8] = test system: Acinetobacter baumannii; test: Antimicrobial activity against multidrug-resistant Acinetobacter baumannii ATCC 19606 measured after 18 hrs by broth microdilution method; type: functional; details: ATCC 19606 = CIP 70.34 = JCM 6841, 18 h
[9] = test system: Staphylococcus aureus; test: Bactericidal activity against methicillin-resistant Staphylococcus aureus ATCC BAA-41 assessed as reduction in bacterial load at 2 to 4 times MIC incubated for 4 hrs followed by replating on MH agar and measured after 24 hrs by time-kill assay; type: functional, organism-based
[10] = test system: Staphylococcus aureus; test: Ratio of MBC to MIC for penicillin-resistant Staphylococcus aureus ATCC 29213; type: functional
[11] = test system: Staphylococcus aureus; test: Bactericidal activity against methicillin-resistant Staphylococcus aureus ATCC BAA-41 assessed as reduction in bacterial load incubated for 1 to 24 hrs followed by replating on MH agar and measured after 24 hrs by time-kill assay; type: functional, organism-based
[12] = test system: Staphylococcus aureus; test: Ratio of MBC to MIC for methicillin-resistant Staphylococcus aureus ATCC BAA-41; type: functional
[13] = test system: Escherichia coli; test: Antimicrobial activity against NDM1 beta -lactamse expressing Escherichia coli ATCC BAA-2469 measured after 18 hrs by broth microdilution method; type: functional; details: ATCC BAA-2469, 18 h
[14] = test system: Enterococcus faecium; test: Antimicrobial activity against drug-susceptible Enterococcus faecium ATCC 49624 measured after 18 hrs by broth microdilution method; type: functional; details: ATCC 49624, 18 h
[15] = test system: Klebsiella pneumoniae; test: Antimicrobial activity against NDM1 beta-lactamase expressing Klebsiella pneumoniae ATCC BAA-2470 measured after 18 hrs by broth microdilution method; type: functional; details: ATCC BAA-2470, 18 h
[16] = test system: Escherichia coli; test: Antimicrobial activity against Escherichia coli ATCC 25922 measured after 18 hrs by broth microdilution method; type: functional; details: ATCC 25922, 18 h
[17] = test system: Enterococcus faecium; test: Antimicrobial activity against vancomycin-resistant Enterococcus faecium ATCC 700221 measured after 18 hrs by broth microdilution method; type: functional; details: ATCC 700221, 18 h
[18] = test system: Staphylococcus aureus; test: Bactericidal activity against methicillin-resistant Staphylococcus aureus ATCC BAA-41 incubated for 18 hrs followed by replating on TSB agar and measured after 24 hrs by broth microdilution method; type: functional
[19] = biological target: T1, Cell division protein FtsZ (Staphylococcus aureus); test: Inhibition of Staphylococcus aureus FtsZ GTPase activity at 1 ug/ml preincubated for 10 mins followed by GTP addition and measured after 30 mins relative to control
[20] = biological target: T1, Cell division protein FtsZ (Staphylococcus aureus); test: Inhibition of recombinant Staphylococcus aureus FtsZ polymerization at 0.4 to 1.2 ug/ml by 90 degree light scattering-based fluorescence spectrometric analysis; details: TDE = time-dependent effect
[21] = biological target: T1, Cell division protein FtsZ (Staphylococcus aureus); test: Inhibition of recombinant Staphylococcus aureus FtsZ polymerization by 90 degree light scattering-based fluorescence spectrometric analysis
[22] = test system: Staphylococcus aureus; test: Bactericidal activity against penicillin-resistant Staphylococcus aureus ATCC 29213 incubated for 18 hrs followed by replating on TSB agar and measured after 24 hrs by broth microdilution method; type: functional
[23] = test system: Staphylococcus aureus; test: Antimicrobial activity against methicillin-resistant Staphylococcus aureus ATCC BAA-41 measured after 18 hrs by broth microdilution method; type: functional; details: ATCC BAA-41, 18 h
[24] = test system: Staphylococcus aureus; test: Antimicrobial activity against Staphylococcus aureus ATCC 25923 measured after 18 hrs by broth microdilution method; type: functional; details: ATCC 25923, 18 h
[25] = test system: Staphylococcus aureus; test: Antimicrobial activity against methicillin-resistant Staphylococcus aureus ATCC 43300 measured after 18 hrs by broth microdilution method; type: functional; details: ATCC 43300, 18 h
[26] = test system: Bacillus subtilis; test: Antibacterial activity against Bacillus subtilis 168 measured after 18 hrs by broth microdilution method; type: functional; details: subsp. subtilis str. 168, 18 h
[27] = test system: Escherichia coli; test: Antibacterial activity against FtsZ over-expressing Escherichia coli BL21 measured after 18 hrs by broth microdilution method; type: functional; details: BL21, 18 h
[28] = biological target: T1, Cell division protein FtsZ (Staphylococcus aureus); test: Inhibition of Staphylococcus aureus FtsZ GTPase activity at 4 ug/ml preincubated for 10 mins followed by GTP addition and measured after 30 mins relative to control
[29] = test system: Staphylococcus aureus; test: Bactericidal activity against methicillin-resistant Staphylococcus aureus ATCC BAA-41 assessed as bacterial load at 1 to 4 times MIC incubated for 24 hrs followed by replating on MH agar and measured after 24 hrs by time-kill assay; type: functional
[30] = biological target: T1, Cell division protein FtsZ (Staphylococcus aureus); test: Inhibition of Staphylococcus aureus FtsZ GTPase activity at 64 ug/ml preincubated for 10 mins followed by GTP addition and measured after 30 mins relative to control
[31] = biological target: T2, Cell division protein FtsZ (Bacillus subtilis (strain 168)) (UniProt P17865); test: Inhibition of cell division function of FtsZ in Bacillus subtilis 168 assessed as cell length at MIC after 4 hrs by FM4-64 dye based confocal microscopic method; details: Bacillus subtilis subsp. subtilis str. 168
T2 sequence (whole entry): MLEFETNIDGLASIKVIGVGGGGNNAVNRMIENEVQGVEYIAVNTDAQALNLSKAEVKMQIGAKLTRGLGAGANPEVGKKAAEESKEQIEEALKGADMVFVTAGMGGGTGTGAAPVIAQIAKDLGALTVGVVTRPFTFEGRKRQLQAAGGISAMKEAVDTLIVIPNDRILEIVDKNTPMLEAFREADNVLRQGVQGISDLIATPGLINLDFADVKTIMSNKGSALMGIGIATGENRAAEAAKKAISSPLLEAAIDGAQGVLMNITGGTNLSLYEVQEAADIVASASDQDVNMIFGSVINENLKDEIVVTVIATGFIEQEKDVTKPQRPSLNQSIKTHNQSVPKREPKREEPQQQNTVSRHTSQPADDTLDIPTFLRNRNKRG

[32] = test system: Bacillus subtilis; test: Disruption of membrane integrity in Bacillus subtilis 168 at MIC after 4 hrs by FM4-64 dye based confocal microscopic method; type: organism-based, subsp. subtilis str. 168
[33] = test system: Staphylococcus aureus; test: Antimicrobial activity against penicillin-resistant Staphylococcus aureus ATCC 29213 measured after 18 hrs by broth microdilution method; type: functional; details: ATCC 29213, 18 h
[34] = test system: Escherichia coli; test: Antibacterial activity against Escherichia coli BL21 measured after 18 hrs by broth microdilution method; type: functional; details: BL21, 18 h
[35] = biological target: T2, Cell division protein FtsZ (Bacillus subtilis (strain 168)); test: Inhibition of cell division function of FtsZ in Bacillus subtilis 168 assessed as increase in cell length at MIC after 4 hrs by FM4-64 dye based confocal microscopic method; details: Bacillus subtilis subsp. subtilis str. 168

Structure (SMILES)	inhibition [1] [%]	MIC [2] [µg/mL]	inhibition [3]	MIC [4] [µg/mL]	Ratio [5]	inhibition [6] [%]	MIC [7] [µg/mL]	MIC [8] [µg/mL]	Ratio [10]	Ratio [12]	MIC [13] [µg/mL]	MIC [14] [µg/mL]	MIC [15] [µg/mL]	MIC [16] [µg/mL]	MIC [17] [µg/mL]	MIC [23] [µg/mL]	MIC [24] [µg/mL]	MIC [25] [µg/mL]	MIC [26] [µg/mL]	MIC [33] [µg/mL]	further results
C[n+]1c(/C=C/c2cc3ccccc3[nH]2)cc(N2CCCCC2)c2ccccc21.[I-]	48.3	4	Dose-dependent effect	> 64	4	40.8	> 64	32	2	2	16	2	> 64	16	4	2	1	2	4	1	Activity [9]: Active; Activity [11]: Dose-dependent effect; MBC [18]: 4 µg/mL; inhibition [19]: 17.9%; inhibition [20]: Tde; inhibition [21]: Dose-dependent effect; MBC [22]: 2 µg/mL; MIC [27]: 32 µg/mL; inhibition [28]: 30.2%; Activity [29]: 1 ×10³ CFU/ml; inhibition [30]: 52.1%; Activity [31]: 70 to 130 µm; Activity [32]: Non-Toxic; MIC [34]: 8 µg/mL
C[n+]1c(/C=C/c2c[nH]c3ccccc23)cc(N2CCCCC2)c2ccccc21.[I-]	34.3	4	Dose-dependent effect	> 64	4	31.8	> 64	16	2	2	16	2	> 64	8	4	2	2	4	4	1	inhibition [35]: Active; MBC [18]: 4 µg/mL; inhibition [19]: 13.6%; MBC [22]: 2 µg/mL; MIC [27]: 16 µg/mL; inhibition [28]: 27.8%; inhibition [30]: 41.9%; MIC [34]: 8 µg/mL
CC1CCN(c2cc(/C=C/c3c[nH]c4ccccc34)[n+](C)c3ccccc23)CC1.[I-]	–	4	–	> 64	–	–	> 64	32	–	–	32	2	> 64	16	4	4	2	4	4	4	inhibition [35]: Active
